In the NIST ThermoML archive (doi:10.1016/j.jct.2015.09.030):

Assay: xn = mol fraction of the nth substance listed
Settings: 100 kPa, Liquid; for mass density: Vibrating tube method; for viscosity: Falling or rolling sphere viscometry

CCCCCCCCCCCCCC[P+](CCCCCC)(CCCCCC)CCCCCC.[Cl-] [trihexyl(tetradecyl)phosphonium chloride] + CO
Settings	mass density, 290.15 K [kg/m3]	mass density, 293.15 K [kg/m3]	mass density, 295.15 K [kg/m3]	mass density, 298.15 K [kg/m3]	viscosity, 295.15 K [mPa·s]	viscosity, 298.15 K [mPa·s]
x1 = 0.0156	815.9	813.3	811.2	809.1	1.033	0.988
x1 = 0.0351	832.7	830.4	828.8	826.4	1.798	1.695
x1 = 0.056	845.2	842.9	841.4	839.2	3.34	3.092
x1 = 0.0811	856.7	854.5	853.1	851	6.279	5.794
x1 = 0.1271	869.2	867.2	865.8	863.8	15.65	14.29
x1 = 0.2092	880.2	878.2	876.9	875	45.36	40.2
x1 = 0.3681	889.1	887.2	885.9	884	173	149.2
x1 = 0.4851	891.6	889.9	888.9	887.1	401.5	339.2
x1 = 0.6453	894.2	892.5	891.4	889.7	820.4	670
x1 = 0.7844	895.8	894	892.9	891.2	1285	1046
x1 = 0.8997	896.8	895.1	894	892.1	1687	1392
x1 = 1	897.5	895.8	894.6	–	1996	1683
